{
  "source": "PubChem BioAssay (NCI)",
  "test_in_all_cases": "DTP human tumour cell line panel, 48 h",
  "key": {"SF-268 CNS": {"tested_on": "SF-268 CNS"}, "OVCAR-5 ovarian": {"tested_on": "OVCAR-5 ovarian"}, "SR leukemia": {"tested_on": "SR leukemia"}, "COLO 205 colon": {"tested_on": "COLO 205 colon"}, "KM12 colon": {"tested_on": "KM12 colon"}, "MOLT-4 leukemia": {"tested_on": "MOLT-4 leukemia"}, "RPMI-8226 leukemia": {"tested_on": "RPMI-8226 leukemia"}, "HT29 colon": {"tested_on": "HT29 colon"}, "CCRF-CEM leukemia": {"tested_on": "CCRF-CEM leukemia"}, "EKVX NSCLC": {"tested_on": "EKVX NSCLC"}, "SK-MEL-2 melanoma": {"tested_on": "SK-MEL-2 melanoma"}, "OVCAR-3 ovarian": {"tested_on": "OVCAR-3 ovarian"}, "MCF7 breast": {"tested_on": "MCF7 breast"}, "NCI-H522 lung": {"tested_on": "NCI-H522 lung"}, "U251 CNS": {"tested_on": "U251 CNS"}, "TK-10 renal": {"tested_on": "TK-10 renal"}, "UACC-257 melanoma": {"tested_on": "UACC-257 melanoma"}, "SF-295 CNS": {"tested_on": "SF-295 CNS"}, "MDA-MB-231 breast": {"tested_on": "MDA-MB-231 breast"}, "DU-145 prostate": {"tested_on": "DU-145 prostate"}, "A549 NSCLC": {"tested_on": "A549 NSCLC"}, "HCT-15 colon": {"tested_on": "HCT-15 colon"}, "UO-31 renal": {"tested_on": "UO-31 renal"}, "UACC-62 melanoma": {"tested_on": "UACC-62 melanoma"}, "LOX IMVI melanoma": {"tested_on": "LOX IMVI melanoma"}, "786-0 renal": {"tested_on": "786-0 renal"}, "SW-620 colon": {"tested_on": "SW-620 colon"}, "SK-MEL-5 melanoma": {"tested_on": "SK-MEL-5 melanoma"}, "HCC-2998 colon": {"tested_on": "HCC-2998 colon"}, "K-562 leukemia": {"tested_on": "K-562 leukemia"}},
  "note": "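A five-concentration, 48-hour dose response in 96-well plates underlies each endpoint, interpolated linearly between surrounding concentrations. GI50 marks 50% less growth. TGI: total growth inhibition.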",
  "data": [
    {"molecule": "C=CC(=O)Nc1ccc(C(=O)/C=C/c2ccc(N(C)CCF)cc2)c(O)c1", "values": [
      {"measurement": "GI50", "setting": "SF-268 CNS", "value": 2.47, "unit": "µM"},
      {"measurement": "TGI", "setting": "SF-268 CNS", "value": 8.58, "unit": "µM"},
      {"measurement": "GI50", "setting": "OVCAR-5 ovarian", "value": 1.98, "unit": "µM"},
      {"measurement": "TGI", "setting": "OVCAR-5 ovarian", "value": 4.3, "unit": "µM"},
      {"measurement": "GI50", "setting": "SR leukemia", "value": 0.586, "unit": "µM"},
      {"measurement": "TGI", "setting": "SR leukemia", "value": 6.2, "unit": "µM"},
      {"measurement": "GI50", "setting": "COLO 205 colon", "value": 1.98, "unit": "µM"},
      {"measurement": "TGI", "setting": "COLO 205 colon", "value": 4.86, "unit": "µM"},
      {"measurement": "GI50", "setting": "KM12 colon", "value": 2.1, "unit": "µM"},
      {"measurement": "TGI", "setting": "KM12 colon", "value": 5.25, "unit": "µM"},
      {"measurement": "GI50", "setting": "MOLT-4 leukemia", "value": 1.99, "unit": "µM"},
      {"measurement": "TGI", "setting": "MOLT-4 leukemia", "value": 6.85, "unit": "µM"},
      {"measurement": "GI50", "setting": "RPMI-8226 leukemia", "value": 1.6, "unit": "µM"},
      {"measurement": "TGI", "setting": "RPMI-8226 leukemia", "value": 5.92, "unit": "µM"},
      {"measurement": "GI50", "setting": "HT29 colon", "value": 1.57, "unit": "µM"},
      {"measurement": "TGI", "setting": "HT29 colon", "value": 3.31, "unit": "µM"},
      {"measurement": "GI50", "setting": "CCRF-CEM leukemia", "value": 2.15, "unit": "µM"},
      {"measurement": "TGI", "setting": "CCRF-CEM leukemia", "value": 10.5, "unit": "µM"},
      {"measurement": "GI50", "setting": "EKVX NSCLC", "value": 3.37, "unit": "µM"},
      {"measurement": "TGI", "setting": "EKVX NSCLC", "value": 13.8, "unit": "µM"},
      {"measurement": "GI50", "setting": "SK-MEL-2 melanoma", "value": 2.53, "unit": "µM"},
      {"measurement": "TGI", "setting": "SK-MEL-2 melanoma", "value": 7.88, "unit": "µM"},
      {"measurement": "GI50", "setting": "OVCAR-3 ovarian", "value": 1.62, "unit": "µM"},
      {"measurement": "TGI", "setting": "OVCAR-3 ovarian", "value": 4.53, "unit": "µM"},
      {"measurement": "GI50", "setting": "MCF7 breast", "value": 1.89, "unit": "µM"},
      {"measurement": "TGI", "setting": "MCF7 breast", "value": 10.7, "unit": "µM"},
      {"measurement": "GI50", "setting": "NCI-H522 lung", "value": 1.42, "unit": "µM"},
      {"measurement": "TGI", "setting": "NCI-H522 lung", "value": 2.95, "unit": "µM"},
      {"measurement": "GI50", "setting": "U251 CNS", "value": 1.88, "unit": "µM"},
      {"measurement": "TGI", "setting": "U251 CNS", "value": 5.17, "unit": "µM"},
      {"measurement": "GI50", "setting": "TK-10 renal", "value": 3.12, "unit": "µM"},
      {"measurement": "TGI", "setting": "TK-10 renal", "value": 8.4, "unit": "µM"},
      {"measurement": "GI50", "setting": "UACC-257 melanoma", "value": 2.53, "unit": "µM"},
      {"measurement": "TGI", "setting": "UACC-257 melanoma", "value": 10.9, "unit": "µM"},
      {"measurement": "GI50", "setting": "SF-295 CNS", "value": 4.49, "unit": "µM"},
      {"measurement": "TGI", "setting": "SF-295 CNS", "value": 18.9, "unit": "µM"},
      {"measurement": "GI50", "setting": "MDA-MB-231 breast", "value": 2.19, "unit": "µM"},
      {"measurement": "TGI", "setting": "MDA-MB-231 breast", "value": 5.58, "unit": "µM"},
      {"measurement": "GI50", "setting": "DU-145 prostate", "value": 2.52, "unit": "µM"},
      {"measurement": "TGI", "setting": "DU-145 prostate", "value": 10.3, "unit": "µM"},
      {"measurement": "GI50", "setting": "A549 NSCLC", "value": 2.62, "unit": "µM"},
      {"measurement": "TGI", "setting": "A549 NSCLC", "value": 12.7, "unit": "µM"},
      {"measurement": "GI50", "setting": "HCT-15 colon", "value": 1.41, "unit": "µM"},
      {"measurement": "TGI", "setting": "HCT-15 colon", "value": 3.01, "unit": "µM"},
      {"measurement": "GI50", "setting": "UO-31 renal", "value": 1.28, "unit": "µM"},
      {"measurement": "TGI", "setting": "UO-31 renal", "value": 3.74, "unit": "µM"},
      {"measurement": "GI50", "setting": "UACC-62 melanoma", "value": 1.3, "unit": "µM"},
      {"measurement": "TGI", "setting": "UACC-62 melanoma", "value": 2.77, "unit": "µM"},
      {"measurement": "GI50", "setting": "LOX IMVI melanoma", "value": 1.33, "unit": "µM"},
      {"measurement": "TGI", "setting": "LOX IMVI melanoma", "value": 2.69, "unit": "µM"},
      {"measurement": "GI50", "setting": "786-0 renal", "value": 1.65, "unit": "µM"},
      {"measurement": "TGI", "setting": "786-0 renal", "value": 3.57, "unit": "µM"},
      {"measurement": "GI50", "setting": "SW-620 colon", "value": 1.52, "unit": "µM"},
      {"measurement": "TGI", "setting": "SW-620 colon", "value": 3.36, "unit": "µM"},
      {"measurement": "GI50", "setting": "SK-MEL-5 melanoma", "value": 2.14, "unit": "µM"},
      {"measurement": "TGI", "setting": "SK-MEL-5 melanoma", "value": 6.49, "unit": "µM"},
      {"measurement": "GI50", "setting": "HCC-2998 colon", "value": 1.78, "unit": "µM"},
      {"measurement": "TGI", "setting": "HCC-2998 colon", "value": 3.64, "unit": "µM"},
      {"measurement": "GI50", "setting": "K-562 leukemia", "value": 2.27, "unit": "µM"}
    ]}
  ]
}
